Counter-ions that a name gives are not always drawn.

Turning to `CC1CCCCN1C(=Nc1ccccc1)NC(=Nc1ccccc1)c1ccccc1` (stereo not shown) (as salt: hydroiodid) [Example 32, N-[(2-methyl-piperidin-1-yl)-phenylimino-methyl]-N′-phenyl-benzamidine], the melting point (in general, the temperature of the solid-liquid transition) was 181 to 183 °C.

For `Cc1ccccc1C(=Nc1ccc(F)cc1)NC(=NC1CCCCC1)N1CCCCC1C` (stereo not shown) (as salt: hydrochloride) [Example 97, N-[cyclohexylimino-(2-methyl-piperidin-1-yl)-methyl]-N′-(4-fluoro-phenyl)-2-methyl-benzamidine], the melting point was > 160 °C (dec.).

As for `Clc1ccccc1C(=NC(=Nc1ccccc1)N1CCCC1)Nc1ccccc1` (as salt: hydrochloride) [Example 30, 2-chloro-N-phenyl-N′-(phenylimino-pyrrolidin-1-yl-methyl)-benzamidine], the melting point was 228 to 230 °C.

In turn, `c1ccc(N=C(NC(=Nc2ccccc2)N2CCCCO2)c2ccccc2)cc1` (as salt: nitrate) [Example 4, N-([1,2]Oxazinan-2-yl-phenylimino-methyl)-N′-phenyl-benzamidine] displayed a melting point of 187 to 190 °C.

Compound `COc1ccc(NC(=NC(=Nc2ccccc2)N2CCCCO2)c2c(C)cccc2C)cc1` (as salt: hydrochloride) [Example 67, N-(4-methoxy-phenyl)-2,6-dimethyl-N′-([1,2]oxazinan-2-yl-phenylimino-methyl)-benzamidine] showed a melting point of 214 to 215 °C.

Compound `Cc1cccc(C)c1C(=NC(=Nc1cccnc1)N1CCCCC1C)Nc1ccc(F)cc1` (stereo not shown) (as salt: hydrochloride) [Example 86, N-(4-fluoro-phenyl)-2,6-dimethyl-N′-[(2-methyl-piperidin-1-yl)-(pyridin-3-ylimino)-methyl]-benzamidine] displayed a melting point of 207 to 210 °C.

With `CC1CCN(C(=Nc2ccccc2)NC(=Nc2ccccc2)c2ccccc2)CC1` (as salt: hydroiodid) [Example 21, N-[(4-methyl-piperidin-1-yl)-phenylimino-methyl]-N′-phenyl-benzamidine], the melting point is 192 to 195 °C (dec.).

With `Cc1cccc(C)c1C(=NC(=Nc1ccc(F)cc1)N1CCCCC1C)Nc1ccc(F)cc1` (stereo not shown) (as salt: hydrochloride) [Example 43, N-(4-fluoro-phenyl)-N′-[(4-fluoro-phenylimino)-(2-methyl-piperidin-1-yl)-methyl]-2,6-dimethyl-benzamidine], the melting point was 162 to 164 °C (dec.).

Turning to `Cc1cccc(C)c1C(=Nc1ccc(F)cc1)NC(=Nc1ccccc1)N1CCCCC1C` (stereo not shown) (as salt: hydrochloride) [Example 35, N-[(2,6-dimethyl-phenyl)-(4-fluoro-phenylimino)-methyl]-2-methyl-N′-phenyl-piperidine-1-carboxamidine], the melting point lay within 181 to 183 °C.

`Cc1ccccc1C(=NC(=Nc1ccccc1)N1CCC(=O)CC1)Nc1ccc(F)cc1` (as salt: hydrochloride) [Example 8, N-(4-Fluoro-phenyl)-2-methyl-N′-[(4-oxo-piperidin-1-yl)-phenylimino-methyl]-benzamidine] returned a melting point of 234 to 235 °C.

`Cc1cccc(C)c1C(=Nc1ccc(F)cc1)NC(=Nc1ccc(Cl)cc1)N1CCCCC1C` (stereo not shown) (as salt: hydrochloride) [Example 46, N-[(4-chloro-phenylimino)-(2-methyl-piperidin-1-yl)-methyl]-N′-(4-fluoro-phenyl)-2,6-dimethyl-benzamidine]: the melting point is 149 to 151 °C (dec.).

Regarding `COc1ccc(N=C(NC(=Nc2ccccc2)N2CCCCCC2)c2c(C)cccc2C)cc1` (as salt: hydrochloride) [Example 68, N-(azepan-1-yl-phenylimino-methyl)-N′-(4-methoxy-phenyl)-2,6-dimethyl-benzamidine], the melting point is 228 to 230 °C (dec.).

Consider `Fc1ccc(N=C(NC(=Nc2ccccc2)c2ccccc2)N2CCCC2)cc1` (as salt: hydrochloride) [Example 25, N-[(4-fluoro-phenylimino)-pyrrolidin-1-yl-methyl]-N′-phenyl-benzamidine], for which the melting point is 242 to 243 °C.

(Values after patent publication US6911477B2, “Muscarinic receptor agonists” (Pfizer Inc., priority 1996, dated 2005).)
